Patent US6177475A, “Methods of using integrin modulators for treatment of inflammation” (priority 1997, dated 2001)

Key:
WI-38 cells = assay type: cell-based, human
HSV-2 strain G = assay: Herpes simplex virus infection of WI-38 fibroblasts (ELISA for HSV antigens); assay type: cell-based; details: Human alphaherpesvirus 2, WI-38, 24 hours
Method: The effect on herpes simplex virus (HSV) infection was assessed using human embryonic lung fibroblast line WI-38 and HSV-2 strain G (derived from a human with the genital infection). Semiconfluent fibroblast monolayers grown in 96-well culture plates (10^5 cells per well) were exposed to serial dilutions of Ajoene or vehicle control, followed immediately by addition of HSV-2 (5000 CCID50 per well). After 24 hours of culturing, the supernatants were examined by ELISA for the content of HSV antigens.

51Cr-labeled monocytes = assay: Monocyte recruitment to inflamed joints in rat adjuvant arthritis; assay type: in vivo; details: 50 mg/kg i.v.; for Accumulation of 51Cr-labeled Monocytes (mean ± SEM): 2 h
Method: Rat adjuvant arthritis is characterized by integrin-mediated migration of ^51 Cr-labeled monocytes and ^111 In-labeled neutrophils into the inflamed synovium, which attains maximum between days 14 and 21 after the immunization. This model of human rheumatoid arthritis was used to assess in vivo effects of Ajoene on integrins that are known to be modulated by Ajoene in vitro.
Adjuvant arthritis was induced in 6-8 week old inbred male Lewis rats by immunization on the lower back with 0.5 mg Mycobacterium butyricum (Difco Laboratories, Inc., Detroit, Mich.) in 0.05 ml mineral oil in two sites subcutaneously at the base of the tail. All the animals developed polyarticular arthritis between days 11 and 13 after immunization. For clinical scoring, 0-4 points were assigned per limb and tail, based on the severity of erythema, swelling, and limitation of movement (the maximal possible score was 20).
Rat blood monocytes and neutrophils for migration studies were obtained by the hydroxyethyl starch (HES) exchange transfusion technique. The total blood volume of a donor rat was exchanged using 50 ml 6% HES solution in saline (DuPont Chemical Co., Dorval, Canada). After recovery of 40-45 ml blood/HES perfusate, the red cells were allowed to sediment (1 g) and the leukocyte-rich plasma was harvested. The leukocytes were recovered by centrifugation, resuspended in calcium-magnesium-free Tyrode's solution supplemented with 10% platelet-poor plasma (TS-PPP), and centrifuged in a discontinuous 63%/74% gradient of isotonic Percoll (Pharmacia Fine Chemicals, Dorval, Canada). The top layer, containing mononuclear cells (MN), and the cells in the 63%/74% interface, containing neutrophils, were collected, washed, and resuspended in TS-PPP. To obtain purified monocytes, the osmolality of the MN suspension was increased by adding 9% NaCl, and the suspension was centrifuged in a 40%/55%/58% Percoll gradient; monocytes were harvested at 40%/55% and […] interfaces, washed, and resuspended in TS-PPP.
Thereafter, monocytes (10^7 cells/ml) were labeled with 75 microCurie/ml of Na2^51 CrO4 (Amersham, Oakville, Canada) at 37° C. for 30 min. Neutrophils (10^7 cells/ml) were labeled with 1 microCurie/ml of ^111 In oxine (Amersham) for 10 min. Both populations were washed to remove excess labeled material and checked for viability and purity. The viability of either cell population used in the experiments was in excess of 95% (as double-checked by Trypan blue exclusion and neutral red staining). The separation procedure described above ordinarily produced populations that contained no less than 90% monocytes and no less than 95% neutrophils. […]

Jurkat cells = assay: Disruption of cell clusters formed by Jurkat cells in culture; assay type: cell-based; details: Homo sapiens, 16 to 24 h
Method: T-lymphocytic H9 and Jurkat cells were maintained as suspension cultures in RPMI-1640 medium supplemented with 10% (v/v) heat-inactivated fetal calf serum, 50 micrograms/ml gentamycin and 2 mM L-glutamine. To assess the effects of Ajoene on adhesive interactions of the cells, H9 cells or Jurkat cells were seeded in 96-well flat-bottomed plates (3×10^5cells per well) and cultured in the presence of log 10 dilutions of Ajoene (experiment) or its vehicle (control) for 16 to 24 h.
The requirement of integrins for the formation of cell-to-cell contacts in each of these systems has long been established. It is known that in platelets the relevant integrin is GP IIb/IIIa (β3). Neutrophil aggregation is underlain by interactions of β2 integrins (e.g., LFA-1 and/or Mac-1) with their surface counterstructures, while cohesion of T-cells is supported by both β2 integrins and fibronectin-binding β1 integrins (e.g., VLA-4 and VLA-5).

[1] = tested on: HIV-1LBi (HIV-infected MOLT-4 cells, syncytiotrophoblasts); assay: Lymphocyte-mediated HIV infection of syncytiotrophoblasts; assay type: cell-based; details: 200 micromoles per liter, 24 hours, virtually all colonies
Text: Human fetal placental epithelial cells, known as syncytiotrophoblasts, were organized in a monolayer and exposed to HIV-infected lymphocytic cells and, as a negative control, to uninfected cells of the same type. This experimental system, closely simulating the actual conditions under which syncytiotrophoblasts would be exposed to HIV-infected cells in vivo, was used to assess integrin-modulating effects of Ajoene.
In order to assess the ability of Ajoene to inhibit lymphocyte-mediated HIV infection of syncytiotrophoblasts, HIV-1LBi -infected MOLT-4 cells were added to adherent cultures of uninfected syncytiotrophoblasts in the presence and absence of Ajoene. Various additional control conditions were also established. First, some wells received filtered (0.45 micrometer) supernatant of cell-free HIV from infected cell cultures. Yet other negative controls included syncytiotrophoblasts cultured alone and syncytiotrophoblasts cultured with uninfected MOLT-4 cells. After 24 hours, the cocultures were washed to removed unbound lymphocytes, fixed, permeabilized, stained for viral core antigens (p24 and p55), and viewed under a fluorescence microscope.

melanoma B16 cells = assay: Melanoma cell implantation (subcutaneous B16); assay type: in vivo, C57BL/6 mice; details: Mus musculus, sc; B16 cells pretreated 15 min; tumor volume at 14 and 21 days
Method: Male C57BL/6 mice were inoculated subcutaneously with 10^6 B16 cells (pretreated for 15 min with Ajoene) in their pretreatment medium, and the volume of the tumors formed was measured 14 and 21 days after the injection.

C=CCSSC=CC[S+]([O-])CC=C (stereo not shown) [Ajoene, 4,5,9-trithiadodeca-1,6,11-triene-9-oxide]
toxicity (WI-38 cells): no detectable toxicity
IC50 (HSV-2 strain G): 6000 nM
IC100 (HSV-2 strain G; read-out: concentration completely preventing HSV infection): 17 µM
inhibition of monocyte recruitment to the talar joints (51Cr-labeled monocytes): ~ 50%
Accumulation of 51Cr-labeled Monocytes (mean ± SEM) (51Cr-labeled monocytes; talar joint, P < 0.006 vs control): 25,078 cpm per sample
Accumulation of 51Cr-labeled Monocytes (mean ± SEM) (51Cr-labeled monocytes; tarsal joint, N.S.): 10,365 cpm per sample
Accumulation of 51Cr-labeled Monocytes (mean ± SEM) (51Cr-labeled monocytes; vertebral joints, P = 0.079): 2,737 cpm per sample
IC50 (Jurkat cells): ~50 nM
prevention of lymphocyte-mediated HIV infection of syncytiotrophoblasts [1]: totally prevented
IC50 (melanoma B16 cells): 2500 nM
